Measurements: patent US10787452B2 (Vertex Pharmaceuticals Incorporated, priority 2012, dated 2020)

Test system: HCT116 colorectal cancer cells
Test: Cisplatin sensitization assay (96 h cell viability MTS);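 note: compound concentration needed to lower the Cisplatin-alone IC50 by a set fold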
Assay type: cell-based
Conditions: 96 h MTS, compound plus Cisplatin
Procedure, shortened: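 HCT116 cells were co-treated with compound and cisplatin, each in 2-fold serial dilutions from a 10 μM top final concentration, as a full matrix. After 96 h at 37 °C, 5% CO2, viability was read by MTS following a 1 h incubation with reagent.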

Question: How did the “Cisplatin Sensitization Assay” value turn out when `COc1cncc(NC(=O)c2c(N)nn3cc(F)cnc23)c1C1CC1` [I-C-84, 2-amino-N-(4-cyclopropyl-5-methoxypyridin-3-yl)-6-fluoropyrazolo[1,5-a]pyrimidine-3-carboxamide] was run?
Answer: ++ (Compounds with a Cisplatin sensitization value >0.02 μM but <0.2 μM are marked with “++.”)

Question: For `CN1CCN(C(=O)C2CCN(c3ccncc3NC(=O)c3c(N)nn4cc(F)cnc34)CC2)CC1` [I-G-1, 2-amino-6-fluoro-N-(4-(4-(4-methylpiperazine-1-carbonyl)piperidin-1-yl)pyridin-3-yl)pyrazolo[1,5-a]pyrimidine-3-carboxamide], which “Cisplatin Sensitization Assay” value is on record?
Answer: +++ (Compounds with a Cisplatin sensitization value of <0.02 μM are marked with “+++.”)

Question: Which “Cisplatin Sensitization Assay” value does the source give for `CN(C)C(=O)C1CCN(c2ccncc2NC(=O)c2c(N)nn3cc(F)cnc23)CC1` [I-G-2, 2-amino-N-(4-(4-(dimethylcarbamoyl)piperidin-1-yl)pyridin-3-yl)-6-fluoropyrazolo[1,5-a]pyrimidine-3-carboxamide] here?
Answer: +++ (Compounds with a Cisplatin sensitization value of <0.02 μM are marked with “+++.”)

Question: `CN1CCN(C(=O)C2CCN(c3c(Cl)cncc3NC(=O)c3c(N)nn4cc(F)cnc34)CC2)CC1` [I-G-3, 2-amino-N-(5-chloro-4-(4-(4-methylpiperazine-1-carbonyl)piperidin-1-yl)pyridin-3-yl)-6-fluoropyrazolo[1,5-a]pyrimidine-3-carboxamide] was tested. Which “Cisplatin Sensitization Assay” value did it give?
Answer: +++ (Compounds with a Cisplatin sensitization value of <0.02 μM are marked with “+++.”)

Question: `CN1CCN(C(=O)C2CCN(c3c(F)cncc3NC(=O)c3c(N)nn4cc(F)cnc34)CC2)CC1` [I-G-4, 2-amino-6-fluoro-N-(5-fluoro-4-(4-(4-methylpiperazine-1-carbonyl)piperidin-1-yl)pyridin-3-yl)pyrazolo[1,5-a]pyrimidine-3-carboxamide] was tested. Which “Cisplatin Sensitization Assay” value did it give?
Answer: +++ (Compounds with a Cisplatin sensitization value of <0.02 μM are marked with “+++.”)

Question: With `CN1CCN(C(=O)C2CCN(c3c(F)cncc3NC(=O)c3c(N)nn4cc(Cl)cnc34)CC2)CC1` [I-G-5, 2-amino-6-chloro-N-(5-fluoro-4-(4-(4-methylpiperazine-1-carbonyl)piperidin-1-yl)pyridin-3-yl)pyrazolo[1,5-a]pyrimidine-3-carboxamide] as the molecule, how does the “Cisplatin Sensitization Assay” value read?
Answer: +++ (Compounds with a Cisplatin sensitization value of <0.02 μM are marked with “+++.”)

Question: With `CN1CCCN(C(=O)C2CCN(c3c(F)cncc3NC(=O)c3c(N)nn4cc(F)cnc34)CC2)CC1` [I-G-6, 2-amino-6-fluoro-N-(5-fluoro-4-(4-(4-methyl-1,4-diazepane-1-carbonyl)piperidin-1-yl)pyridin-3-yl)pyrazolo[1,5-a]pyrimidine-3-carboxamide] as the molecule, how does the “Cisplatin Sensitization Assay” value read?
Answer: +++ (Compounds with a Cisplatin sensitization value of <0.02 μM are marked with “+++.”)

Question: How did the “Cisplatin Sensitization Assay” value turn out when `Nc1nn2cc(F)cnc2c1C(=O)Nc1cncc(F)c1N1CCC(C(=O)N2CCN3CCC2CC3)CC1` [I-G-7, N-(4-(4-(1,4-diazabicyclo[3.2.2]nonane-4-carbonyl)piperidin-1-yl)-5-fluoropyridin-3-yl)-2-amino-6-fluoropyrazolo[1,5-a]pyrimidine-3-carboxamide] was run?
Answer: +++ (Compounds with a Cisplatin sensitization value of <0.02 μM are marked with “+++.”)

Question: With `Nc1nn2cc(F)cnc2c1C(=O)Nc1cncc(F)c1N1CCC(C(=O)N2CCC2)CC1` [I-G-8, 2-amino-N-(4-(4-(azetidine-1-carbonyl)piperidin-1-yl)-5-fluoropyridin-3-yl)-6-fluoropyrazolo[1,5-a]pyrimidine-3-carboxamide] as the molecule, how does the “Cisplatin Sensitization Assay” value read?
Answer: +++ (Compounds with a Cisplatin sensitization value of <0.02 μM are marked with “+++.”)

Question: `CCN1CCN(C(=O)C2CCN(c3c(F)cncc3NC(=O)c3c(N)nn4cc(F)cnc34)CC2)CC1` [I-G-9, 2-amino-N-(4-(4-(4-ethylpiperazine-1-carbonyl)piperidin-1-yl)-5-fluoropyridin-3-yl)-6-fluoropyrazolo[1,5-a]pyrimidine-3-carboxamide] was tested. Which “Cisplatin Sensitization Assay” value did it give?
Answer: +++ (Compounds with a Cisplatin sensitization value of <0.02 μM are marked with “+++.”)

Question: Which “Cisplatin Sensitization Assay” value does the source give for `Nc1nn2cc(F)cnc2c1C(=O)Nc1cncc(F)c1N1CCC(C(=O)N2CCN3CCCC3C2)CC1` (stereo not drawn) [I-G-10, 2-amino-6-fluoro-N-(5-fluoro-4-(4-(octahydropyrrolo[1,2-a]pyrazine-2-carbonyl)piperidin-1-yl)pyridin-3-yl)pyrazolo[1,5-a]pyrimidine-3-carboxamide] here?
Answer: +++ (Compounds with a Cisplatin sensitization value of <0.02 μM are marked with “+++.”)

Question: How did the “Cisplatin Sensitization Assay” value turn out when `CN(C)[C@@H]1CCN(C(=O)C2CCN(c3c(F)cncc3NC(=O)c3c(N)nn4cc(F)cnc34)CC2)C1` [I-G-11, (R)-2-amino-N-(4-(4-(3-(dimethylamino)pyrrolidine-1-carbonyl)piperidin-1-yl)-5-fluoropyridin-3-yl)-6-fluoropyrazolo[1,5-a]pyrimidine-3-carboxamide] was run?
Answer: +++ (Compounds with a Cisplatin sensitization value of <0.02 μM are marked with “+++.”)

Question: `Nc1nn2cc(F)cnc2c1C(=O)Nc1cncc(F)c1N1CCC(C(=O)N2CCNCC2)CC1` [I-G-12, 2-amino-6-fluoro-N-(5-fluoro-4-(4-(piperazine-1-carbonyl)piperidin-1-yl)pyridin-3-yl)pyrazolo[1,5-a]pyrimidine-3-carboxamide] was tested. Which “Cisplatin Sensitization Assay” value did it give?
Answer: +++ (Compounds with a Cisplatin sensitization value of <0.02 μM are marked with “+++.”)

Question: How did the “Cisplatin Sensitization Assay” value turn out when `Nc1nn2cc(F)cnc2c1C(=O)Nc1cncc(F)c1N1CCC(C(=O)N2CCN(C3CC3)CC2)CC1` [I-G-13, 2-amino-N-(4-(4-(4-cyclopropylpiperazine-1-carbonyl)piperidin-1-yl)-5-fluoropyridin-3-yl)-6-fluoropyrazolo[1,5-a]pyrimidine-3-carboxamide] was run?
Answer: +++ (Compounds with a Cisplatin sensitization value of <0.02 μM are marked with “+++.”)

Question: How did the “Cisplatin Sensitization Assay” value turn out when `Nc1nn2cc(F)cnc2c1C(=O)Nc1cncc(F)c1N1CCC(C(=O)N2CC3(COC3)C2)CC1` [I-G-14, N-(4-(4-(2-oxa-6-azaspiro[3.3]heptane-6-carbonyl)piperidin-1-yl)-5-fluoropyridin-3-yl)-2-amino-6-fluoropyrazolo[1,5-a]pyrimidine-3-carboxamide] was run?
Answer: +++ (Compounds with a Cisplatin sensitization value of <0.02 μM are marked with “+++.”)

Question: How did the “Cisplatin Sensitization Assay” value turn out when `CN1CCN(C(=O)C2CCN(c3c(F)cncc3NC(=O)c3c(N)nn4cc(F)cnc34)CC2)CC1(C)C` [I-G-15, 2-amino-6-fluoro-N-(5-fluoro-4-(4-(3,3,4-trimethylpiperazine-1-carbonyl)piperidin-1-yl)pyridin-3-yl)pyrazolo[1,5-a]pyrimidine-3-carboxamide] was run?
Answer: +++ (Compounds with a Cisplatin sensitization value of <0.02 μM are marked with “+++.”)

Question: With `CN(C)CCCN(C)C(=O)C1CCN(c2c(F)cncc2NC(=O)c2c(N)nn3cc(F)cnc23)CC1` [I-G-16, 2-amino-N-(4-(4-((3-(dimethylamino)propyl)(methyl)carbamoyl)piperidin-1-yl)-5-fluoropyridin-3-yl)-6-fluoropyrazolo[1,5-a]pyrimidine-3-carboxamide] as the molecule, how does the “Cisplatin Sensitization Assay” value read?
Answer: +++ (Compounds with a Cisplatin sensitization value of <0.02 μM are marked with “+++.”)

Question: How did the “Cisplatin Sensitization Assay” value turn out when `CNCCCN(C)C(=O)C1CCN(c2c(F)cncc2NC(=O)c2c(N)nn3cc(F)cnc23)CC1` [I-G-17] was run?
Answer: + (Compounds with a Cisplatin sensitization value >0.2 μM but <5 μM are marked with “+.”)

Question: Which “Cisplatin Sensitization Assay” value does the source give for `CN1CC2CN(C(=O)C3CCN(c4c(F)cncc4NC(=O)c4c(N)nn5cc(F)cnc45)CC3)CC2C1` (stereo not drawn) [I-G-18, 2-amino-6-fluoro-N-(5-fluoro-4-(4-(5-methyloctahydropyrrolo[3,4-c]pyrrole-2-carbonyl)piperidin-1-yl)pyridin-3-yl)pyrazolo[1,5-a]pyrimidine-3-carboxamide] here?
Answer: +++ (Compounds with a Cisplatin sensitization value of <0.02 μM are marked with “+++.”)

Question: Which “Cisplatin Sensitization Assay” value does the source give for `CC(C)(C)NC(=O)C1CCN(c2c(F)cncc2NC(=O)c2c(N)nn3cc(F)cnc23)CC1` [I-G-19, 2-amino-N-(4-(4-(tert-butylcarbamoyl)piperidin-1-yl)-5-fluoropyridin-3-yl)-6-fluoropyrazolo[1,5-a]pyrimidine-3-carboxamide] here?
Answer: ++ (Compounds with a Cisplatin sensitization value >0.02 μM but <0.2 μM are marked with “++.”)

Question: `CN1CCC(NC(=O)C2CCN(c3c(F)cncc3NC(=O)c3c(N)nn4cc(F)cnc34)CC2)CC1` [I-G-20, 2-amino-6-fluoro-N-(5-fluoro-4-(4-((1-methylpiperidin-4-yl)carbamoyl)piperidin-1-yl)pyridin-3-yl)pyrazolo[1,5-a]pyrimidine-3-carboxamide] was tested. Which “Cisplatin Sensitization Assay” value did it give?
Answer: + (Compounds with a Cisplatin sensitization value >0.2 μM but <5 μM are marked with “+.”)

Question: How did the “Cisplatin Sensitization Assay” value turn out when `COC1CN(C(=O)C2CCN(c3c(F)cncc3NC(=O)c3c(N)nn4cc(F)cnc34)CC2)C1` [I-G-21, 2-amino-6-fluoro-N-(5-fluoro-4-(4-(3-methoxyazetidine-1-carbonyl)piperidin-1-yl)pyridin-3-yl)pyrazolo[1,5-a]pyrimidine-3-carboxamide] was run?
Answer: +++ (Compounds with a Cisplatin sensitization value of <0.02 μM are marked with “+++.”)

Question: Which “Cisplatin Sensitization Assay” value does the source give for `CN(C)C1CN(C(=O)C2CCN(c3c(F)cncc3NC(=O)c3c(N)nn4cc(F)cnc34)CC2)C1` [I-G-22, 2-amino-N-(4-(4-(3-(dimethylamino)azetidine-1-carbonyl)piperidin-1-yl)-5-fluoropyridin-3-yl)-6-fluoropyrazolo[1,5-a]pyrimidine-3-carboxamide] here?
Answer: +++ (Compounds with a Cisplatin sensitization value of <0.02 μM are marked with “+++.”)

Question: `CN1CC(NC(=O)C2CCN(c3c(F)cncc3NC(=O)c3c(N)nn4cc(F)cnc34)CC2)C1` [I-G-23, 2-amino-6-fluoro-N-(5-fluoro-4-(4-((1-methylazetidin-3-yl)carbamoyl)piperidin-1-yl)pyridin-3-yl)pyrazolo[1,5-a]pyrimidine-3-carboxamide] was tested. Which “Cisplatin Sensitization Assay” value did it give?
Answer: +++ (Compounds with a Cisplatin sensitization value of <0.02 μM are marked with “+++.”)
